The record followed here is patent US20100022559A1, “BISOXIMES AS FUNGICIDES” (BAYER CROPSCIENCE AG, priority 2006, published 2010).

Structures are written as SMILES.

The nature of the series: logP determination by HPLC on a reversed-phase column (C 18), EEC Directive 79/831 Annex V.A8. Format: physicochemical. On the procedure:
The stated logP values were determined in accordance with EEC Directive 79/831 Annex V.A8 by HPLC (high performance liquid chromatography) on a reversed-phase column (C 18). Temperature: 43° C.

Where [1] appears, read: method marker [b], isomer A / isomer B / isomer mixture as noted in the cell.
The mark [2] stands for this setting: method marker [a] (footnote not shown), isomer A / isomer B / isomer mixture as noted in the cell.

With `CC(=NOCC(=O)CON=C(C)c1cccc(C)n1)c1cccc(C)n1` [compound 71], under setting [1], the logP is 2.20^[b].
Consider `COCC#Cc1cc(C)nc(C(C)=NOCC(C)CON=C(C)c2cc(C#CCOC)cc(C)n2)c1` (stereo not shown) [compound 874], for which the logP by setting is: (value marked [a]) 6.76^[a]; (value marked [b]) 6.76^[b]; (value marked [c]) 6.87^[c].
For `CCC(=NOCCCON=C(CC)c1ncccc1C)c1ncccc1C` (single isomer, unassigned) [compound 94], the logP under setting [2] was 3.65^[a] (isomer B).
For the compound `Cc1cccnc1C(Cc1ccccc1)=NOCC(C)CON=C(Cc1ccccc1)c1ncccc1C` (single isomer, unassigned) [compound 108], under setting [2], the logP was 5.32^[a] (isomer A).
For the compound `CC(=NOCC(C)CON=C(C)c1cccc(C)n1)c1ccccc1` (stereo not shown) [compound 439], the logP (value marked [b]) is 4.91^[b].
Consider `C=C(CON=C(C)c1cnccn1)CON=C(C)c1cccc(C)n1` [compound 514], for which, under “value marked [b]”, the logP is 2.98^[b].
In the case of `C(=NOCCCON=Cc1ccccn1)c1ccccn1` [compound 666], where the note is “method marked [b] in Table 1”, the logP was 1.97^[b].
In the case of `C=C(CON=C(C)c1cccc(C)n1)CON=C(C)c1cccc(CC)n1` [compound 354], the logP (value marked [b]) was 4.67^[b].
Take `CCCC1=NOC(CON=C(CC)c2cccc(C)n2)(CON=C(CC)c2cccc(C)n2)C1` (stereo not shown) [compound 608]: for the setting “method marked [b] in Table 1”, the logP was 4.72^[b].
`CC(=NOCc1cccc(CON=C(C)c2cc(C)cc(C)n2)n1)c1cc(C)cc(C)n1` [compound 742]: the logP (method marked [c] in Table 1) is 4.96^[c].
With `Cc1cccc(C(=NOCCON=C(c2cccc(C)n2)C(C)C)C(C)C)n1` (mixture of isomers) [compound 288], the logP (value marked [a]) is 4.03^[a].
As to `CC(=NOCCCON=C(C)c1ccc(C)cn1)c1ccc(C)cn1` [Compound 81], under setting [2], the logP is 2.90^[a].
With `C=C(CON=C(C)c1cc(C(=O)OC)cc(C)n1)CON=C(C)c1cc(C(=O)OC)cc(C)n1` [compound 178], the logP under setting [1] was 5.46^[b].
`CC(=NOCC(C)(C)CON=C(C)c1cccc(-c2ccc(C(C)(C)C)cc2)n1)c1cccc(-c2ccc(C(C)(C)C)cc2)n1` [compound 580]: the logP (method marked [a] in Table 1) is 7.36^[a].
For `CC(=NOC(=O)NCCCCNC(=O)ON=C(C)c1cccc(C)n1)c1cccc(C)n1` [compound 864], for the setting “value marked [a]”, the logP is 1.97^[a].
For `C=C(CON=C(C)c1cccn1C)CON=C(C)c1cccn1C` [compound 21], the logP under setting [1] is 5.03^[b].
Consider `C=C(CON=C(C)c1ccc(C)nc1)CON=C(C)c1cccc(C)n1` (single isomer, unassigned) [compound 200], for which the logP under setting [1] is 1.92^[b] (isomer A).
`CC(=NOCC(C)CON=C(C)c1ccc(Cl)s1)c1cccc(C)n1` (stereo not shown) [compound 498]: the logP (value marked [b]) is 5.36^[b].
In the case of `CC(=NOCC(C)(C)CON=C(C)c1csc(C)n1)c1csc(C)n1` [compound 518], the logP runs as follows: (value marked [a]) 3.99^[a]; (value marked [b]) 3.99^[b].
Consider `CC(=NOCc1ccccc1CON=C(C)c1cccc(C)n1)c1cccc(C)n1` [compound 703], for which the logP (method marked [b] in Table 1) was 4.26^[b].
For `CCC(CC)(CON=C(C)c1cccc(C)n1)CON=C(C)c1cccc(C)n1` [Compound 809], the logP was 6.68^[b] (value marked [b]) and 6.97^[c] (value marked [c]).
`CC(=NOCCCCON=C(C)c1cccc(C)n1)c1ccncc1` [compound 440]: for the setting “value marked [b]”, the logP is 1.88^[b].
In the case of `C=C(CON=C(C)c1cccc(C)n1)CON=C(CCC)c1ncccc1C` (single isomer, unassigned) [compound 535], the logP (method marked [b] in Table 1) was 4.46^[b] (isomer B).
With `CCc1ccnc(C(C)=NOCC(C)CON=C(C)c2cc(CC)ccn2)c1` (stereo not shown) [compound 105], under setting [2], the logP is 3.62^[a].
As to `C#CCOc1ccc(C(C)=NOCC(C)CON=C(C)c2ccc(OCC#C)c(C)n2)nc1C` (stereo not shown) [Compound 867], the logP was 5.33^[b] (value marked [b]) and 5.44^[c] (value marked [c]).
For the compound `CCOc1cc(C)nc(C(C)=NOCC(C)CON=C(C)c2cc(OCC)cc(C)n2)c1` (stereo not shown) [Compound 683], where the note is “method marked [a] in Table 1”, the logP was 1.71^[a].
As for `CC(=NOCC1(CON=C(C)c2cc(C)cc(C)n2)CCCC1)c1cc(C)cc(C)n1` [Compound 589], the logP by setting is: (method marked [b] in Table 1) 3.35^[b]; (method marked [c] in Table 1) 7.36^[c].
On to `Cc1cc(C)nc(C(N)=NOC/C=C/CON=C(N)c2cc(C)cc(C)n2)c1` (single isomer, unassigned) [compound 770], for which the logP (value marked [b]) is 2.55^[b] (isomer B).
As for `C=C(CON=C(C)c1cccc(C)n1)CON=C(N)c1cc(C)cc(C)n1` [Compound 189], under setting [1], the logP is 2.92^[b].
With `CC(=NOCC(C)(C)CON=C(C)c1ncccc1C)c1cccc(C)n1` [compound 490], the logP (value marked [b]) is 3.89^[b].
`CC(=NOCC(C)CON=C(C)c1cccc(C)n1)c1ccc2ccccc2c1` (stereo not shown) [compound 497]: the logP (value marked [b]) was 5.84^[b].
Consider `Cc1cc(C)nc(/C(N)=N/OCC(C)CO/N=C(\N)c2nc(C)cc(C)n2)n1` (stereo not shown) [Compound 10], for which the logP under setting [1] is 1.81^[b].
In the case of `CC(=NOCC(CON=C(C)c1cccc(C)n1)c1ccccc1)c1cccc(C)n1` (stereo not shown) [Compound 264], the logP (value marked [b]) is 4.63^[b].
`C/C(=N\OCC(C)CON)c1cccc(C)n1` (racemic) [XII-11]: the logP ([a] acidic range, pH 2.3, 0.1% aqueous phosphoric acid and acetonitrile) is 0.7^[a]; the logP ([b] LC-MS, acidic range, pH 2.7, 0.1% aqueous formic acid and acetonitrile) is 0.7^[b]; the logP ([c] LC-MS, neutral range, pH 7.8, 0.001 molar aqueous ammonium bicarbonate solution and acetonitrile) was 2.15^[c].
`Cc1cccc(C(CS(C)(=O)=O)=NOCC(C)CON=C(CS(C)(=O)=O)c2cccc(C)n2)n1` (stereo not shown) [compound 137]: under setting [2], the logP is 3.08^[a].
As to `CC(=NOCC(C)CON=C(C)c1cc(C2CC2)cc(C)n1)c1cc(Cl)cc(C)n1` (stereo not shown) [compound 846], the logP is 5.23^[a] (value marked [a]) and 7.36^[c] (value marked [c]).
Regarding `CC(=NOC(=O)NCCCC(C)CNC(=O)ON=C(C)c1cccc(C)n1)c1cccc(C)n1` (stereo not shown) [compound 863], the logP (value marked [a]) is 2.46^[a].
As to `C=C(CON=C(C)c1cccc(C)n1)CON=C(C)c1ncccc1Cl` (single isomer, unassigned) [compound 139], under setting [1], the logP was 3.39^[b] (isomer B).
As to `CC(=NOCC(C)CON=C(C)c1cccc(-c2ccccc2)n1)c1cccc(-c2ccccc2)n1` (stereo not shown) [compound 563], the logP was 7.36^[b] (method marked [b] in Table 1) and 7.36^[c] (method marked [c] in Table 1).
With `CC(=NOCCCON=C(C)c1sc(C)nc1C)c1sc(C)nc1C` [compound 54], the logP under setting [1] was 3.10^[b].
For `CC(=NOCC1(CON=C(C)c2nc(C)ccc2C)CCC1)c1nc(C)ccc1C` (single isomer, unassigned) [compound 760], the logP is 4.72^[c] (method marked [c] in Table 1) and 2.72^[b] (value marked [b]).
`CC(=NOCC1(CON=C(C)c2cc(C)cc(C)n2)CCCCC1)c1cc(C)cc(C)n1` [Compound 553]: the logP is, setting by setting: (method marked [b] in Table 1) 3.87^[b]; (method marked [c] in Table 1) 7.36^[c].
As for `CC(=NOCC(C)(C)CON=C(C)c1nc(C)c(C)s1)c1cccc(C)n1` [compound 411], the logP (value marked [b]) was 5.36^[b].
Consider `CC(=NOCCCON=C(C)c1cc(-c2ccccc2)ccn1)c1cc(-c2ccccc2)ccn1` [compound 132], for which the logP under setting [2] is 5.74^[a].
Take `CC(=NOCCCCCCON=C(C)c1cnnc(C)n1)c1cccc(C)n1` [compound 344]: the logP (value marked [b]) was 4.15^[b].
With `CC(=NOCCON=C(C)c1sc(C)nc1C)c1sc(C)nc1C` [compound 53], the logP under setting [1] is 2.70^[b].
